# Measurements from paper PMC3479967 (Evidence-based Complementary and Alternative Medicine : eCAM, 2012).
# Experiments:
# UGT1A1 = target: T1, UGT1A1 (Homo sapiens, UniProt P22309); assay: Inhibition of recombinant UGT1A1 activity (4-MU glucuronidation)
# T1 sequence (P22309 26-533): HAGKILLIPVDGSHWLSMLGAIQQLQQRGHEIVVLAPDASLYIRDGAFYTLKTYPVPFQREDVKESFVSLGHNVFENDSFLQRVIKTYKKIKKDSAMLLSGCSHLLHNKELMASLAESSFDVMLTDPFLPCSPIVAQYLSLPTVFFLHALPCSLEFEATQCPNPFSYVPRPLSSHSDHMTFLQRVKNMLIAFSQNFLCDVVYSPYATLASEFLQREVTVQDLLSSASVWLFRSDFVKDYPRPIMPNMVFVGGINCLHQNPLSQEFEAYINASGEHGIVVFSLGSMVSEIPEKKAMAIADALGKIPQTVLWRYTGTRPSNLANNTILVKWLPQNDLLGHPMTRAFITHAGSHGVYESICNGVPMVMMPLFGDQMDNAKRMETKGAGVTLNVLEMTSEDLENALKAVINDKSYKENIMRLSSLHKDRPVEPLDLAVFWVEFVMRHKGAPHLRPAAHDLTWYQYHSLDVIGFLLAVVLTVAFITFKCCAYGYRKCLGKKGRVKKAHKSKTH
# Method: (§1) A panel of recombinant human UGT supersomes (UGT1A1, UGT1A3, UGT1A4, UGT1A6, UGT1A7, UGT1A8, UGT1A9, UGT1A10, UGT2B4, UGT2B7, UGT2B15, and UGT2B17) expressed in baculovirus-infected insect cells were purchased from BD Gentest Corp. (Woburn, MA, USA).
# (§2) 4-MU, a nonselective substrate of UGTs, was used as probe substrate for all UGTs except UGT1A4. Incubations with each individual enzyme were conducted using conditions previously described. There was a 5 min preincubation step at 37°C before the reaction was started by addition of UDPGA. The incubation mixtures were then centrifuged at 20,500 ×g for 15 min to obtain the supernatant. Aliquots (20 μL) were then analyzed by HPLC. The HPLC system (SHIMADZU, Kyoto, Japan) consisted of an SCL-10A system controller, two LC-10AT pumps, a SIL-10A auto injector, and a SPD-10AVP UV detector. Chromatographic separation was achieved using a Kromasil ODS column (4.6 × 150 mm I.D., 5 μm particle size) at a flow rate of 1 mL/min and UV detection at 316 nm. The mobile phase consisted of 10 mM KH2PO4, pH 2.7 (A) and acetonitrile (B). The following gradient was applied at a flow rate of 1 mL/min: 0–4 min 80% A and 20% B, 4.1–8 min 50% A and 50% B, 8.1–12 min, 30% A and 70% B. All experiments were performed in two independent experiments in duplicate.
# A typical incubation mixture contained recombinant human UGTs, 5 mM MgCl2, 5 mM UDPGA, 50 μg/mg protein alamethicin, 50 mM Tris-HCl buffer (pH 7.4), and various probe substrates of UGTs in the absence or presence of different concentrations of inhibitors. […] The final concentration of DMSO in the incubation system was 1% (v/v). […]
# (§3) Inhibition data from experiments were graphically represented by Dixon plots. K i values were calculated by nonlinear regression using the equations for competitive inhibition (1), noncompetitive inhibition (2), or mixed inhibition (3), [22] […] The type of inhibition was determined from the enzyme inhibition models. Goodness of fit to kinetic and inhibition models was assessed from the F statistic, r ^2 values, parameter standard error estimates, and 95% confidence intervals. […]
# UGT2B7 = target: T2, UGT2B7 (Homo sapiens, UniProt P16662); assay: Inhibition of recombinant UGT2B7 activity (4-MU glucuronidation)
# T2 sequence (P16662 24-529): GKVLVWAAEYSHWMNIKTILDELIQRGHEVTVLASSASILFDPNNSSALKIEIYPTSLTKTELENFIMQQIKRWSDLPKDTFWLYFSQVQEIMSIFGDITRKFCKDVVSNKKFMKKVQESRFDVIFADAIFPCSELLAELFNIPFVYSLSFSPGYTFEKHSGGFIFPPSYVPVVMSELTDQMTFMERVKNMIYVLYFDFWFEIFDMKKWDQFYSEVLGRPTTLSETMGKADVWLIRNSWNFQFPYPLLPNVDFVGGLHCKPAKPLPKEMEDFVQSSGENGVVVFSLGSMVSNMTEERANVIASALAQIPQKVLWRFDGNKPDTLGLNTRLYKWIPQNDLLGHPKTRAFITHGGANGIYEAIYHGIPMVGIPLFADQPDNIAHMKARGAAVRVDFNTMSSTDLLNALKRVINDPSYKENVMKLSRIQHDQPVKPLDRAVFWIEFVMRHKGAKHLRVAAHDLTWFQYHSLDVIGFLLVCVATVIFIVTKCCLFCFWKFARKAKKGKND
# Method: as §1, §2
# A typical incubation mixture contained recombinant human UGTs, 5 mM MgCl2, 5 mM UDPGA, 50 μg/mg protein alamethicin, 50 mM Tris-HCl buffer (pH 7.4), and various probe substrates of UGTs in the absence or presence of different concentrations of inhibitors. […] The final concentration of DMSO in the incubation system was 1% (v/v). […] Known UGT inhibitors were used as positive controls: diclofenac for UGT1A1, UGT1A6, UGT1A7, and UGT1A9; androsterone for UGT1A3, UGT2B7, and UGT2B15, phenylbutazone for UGT1A8 and UGT1A10, and hecogenin for UGT1A4, respectively. There is no positive control reported available for UGT2B4 and UGT2B17. The negative controls are the incubation without UDPGA. […] The final concentration of DMSO in the incubation system was 1% (v/v). […] There was a 5 min preincubation step at 37°C before the reaction was started by the addition of UDPGA. Incubation times were 120 min for UGT1A1, UGT1A10, UGT2B4, UGT2B15, and UGT2B17, 75 min for UGT1A3, and 30 min for UGT1A4, UGT1A6, UGT1A7, UGT1A8, and UGT1A9. The reactions were quenched by adding 100 μL acetonitrile and internal standard. The incubation mixtures were then centrifuged at 20,500 ×g for 15 min to obtain the supernatant. An aliquot of the supernatant was used for HPLC analysis as described above. All experiments were performed in two independent experiments in duplicate.
# as §3
IC50 (UGT1A1) [µM],IC50 (UGT2B7) [µM],SMILES
> 100,> 100,COc1ccc(-c2oc3c(CC=C(C)C)c(O)cc(O)c3c(=O)c2O)cc1 [Icaritin]
> 100,> 100,COc1ccc(-c2oc3c(CC=C(C)C)c(O[C@@H]4O[C@H](CO)[C@@H](O)[C@H](O)[C@H]4O)cc(O)c3c(=O)c2O)cc1 [Icariside I]

SMILES,IC50 (UGT1A1) [µM],IC50 (UGT2B7) [µM]
COc1ccc(-c2oc3c(CC=C(C)C)c(O[C@@H]4O[C@H](CO)[C@@H](O)[C@H](O)[C@H]4O)cc(O)c3c(=O)c2O[C@@H]2O[C@@H](C)[C@H](O)[C@@H](O)[C@H]2O)cc1 [Icariin],> 100,> 100
